# Source: patent publication US11384381B2, “Reaction accelerating agent” (Kikkoman Corporation, priority 2016, dated 2022)
# Columns and labels:
# [1] = test system: sarcosine oxidase (SOD-TE); test: Sarcosine detection reaction completed with excess sarcosine oxidase (Example 10); type: biochemical; conditions: 0.04% (w/v) compound, 123 U/ml SOD-TE (excess), 32 μM sarcosine, pH 8.0, 37° C.; for ΔA9 min: change in A694-A751 9 minutes after mixing; for ΔA10 min: change in A694-A751 10 minutes after mixing, defined as ΔA100%
# Procedure: In this Example, the amount of change in absorbance is determined when the detection reaction of the substrate sarcosine (N-methylglycine) was completed using an excess amount of sarcosine oxidase (SOD-TE), which is an oxidase.
# A reagent for sarcosine measurement having the following composition was prepared, and the measurement of sarcosine using sarcosine oxidase was carried out using Bio Majesty JCA-BM 1650 (manufactured by JEOL Ltd.).
# (§1) 32 μM sarcosine (manufactured by Wako Pure Chemical Industries, Ltd.)
# (§2) 30 mM MOPS-NaOH buffer solution, pH 8.0
# (§3) 0.2% (v/v) NP-10 (manufactured by HELM)
# (§4) 10 U/ml peroxidase PEO-301 (Toyobo Co., Ltd.)
# 0.023 mM 10-(carboxymethylaminocarbonyl)-3,7-bis(dimethylamino)phenothiazine sodium (DA-67, manufactured by Wako Pure Chemical Industries, Ltd.)
# (§5) 0.04% (w/v) of the compound of Comparative Example 2, any one compound of the present invention, or compound-free (Comparative Example 1) ion-exchange water as shown in Table 1
# (§6) 10 mM MOPS-NaOH buffer solution, pH 8.0
# 123 U/ml SOD-TE (manufactured by Kikkoman Biochemifa Company)
# (§7) 8 μl of the sample was added to 96 μl of the first reagent-D, and the mixture was incubated at 37° C. for 5 minutes. Then, 24 μl of the second reagent-G was added thereto, and the quantitative reaction of hydrogen peroxide resulting from the oxidation of sarcosine was allowed to progress at 37° C. for 5 minutes. The absorbance (A694 and A751) of the reaction solution for light at wavelengths of 694 nm and 751 nm was measured over time for 10 minutes after the mixing of the sample with the first reagent-D to determine the value of subtraction of A751 from A694, i.e., the value A694/751. Subsequently, ΔA was calculated by subtracting, from A694/751, the value of (104/128) times A % s 4.8 minutes after the mixing of the sample with the first reagent-D. Incidentally, 4.8 minutes after the mixing of the sample with the first reagent-D represents the time immediately before the addition of the second reagent-G. ΔA 9 minutes and 10 minutes after the mixing of the diluted sample with the first reagent-D (ΔA9min and ΔA10min) are shown in Table 7.
# In other words, it can be recognized that the quantitative reaction of sarcosine, i.e., the quantitative reaction of hydrogen peroxide resulting from the oxidation of sarcosine, was completed in 10 minutes after the mixing of the diluted sample with the first reagent-D. Accordingly, in Examples 10 and 11, ΔA10min in each Comparative Example or the present invention was defined as ΔA when 100% of the quantitative reaction of sarcosine progressed under each condition (ΔA100%).
# [2] = test system: sarcosine oxidase (SOD-TE); test: Acceleration of sarcosine detection reaction with small amount of sarcosine oxidase (Example 11); type: biochemical; conditions: 0.04% (w/v) compound, 12.3 U/ml SOD-TE; for effect of accelerating sarcosine detection reaction: versus not added; for Degree of progression of reaction (%) after 7.5 minutes / Degree of progression of reaction (%) after 10 minutes: sarcosine detection reaction, ΔA/ΔA100%; for Degree of progression of reaction (%) after 7.5 minutes: 2.5 minutes after addition of second reagent, not added: 60; for Degree of progression of reaction (%) after 10 minutes: 5 minutes after addition of second reagent, not added: 82
# Procedure: Next, in this Example, the degree of acceleration of sarcosine detection reaction by the compound of the present invention was determined using a small amount of sarcosine oxidase.
# A reagent for sarcosine measurement having the following composition was prepared, and the measurement of sarcosine was carried out using Bio Majesty JCA-BM1650 (manufactured by JEOL Ltd.).
# as §1, §2, §3, §4
# 0.023 mM 10-(carboxymethylaminocarbonyl)-3,7-bis(dimethylamino)phenothiazine sodium
# (DA-67, manufactured by Wako Pure Chemical Industries, Ltd.)
# as §5, §6
# 12.3 U/ml SOD-TE (manufactured by Kikkoman Biochemifa Company)
# as §7, with “[…]” for “96 μl”, “second reagent-H” for “second reagent-G”, “times A694/751” for “times A % s”, “Incidentally, 5” for “Incidentally, 4.8”, “second reagent-H.” for “second reagent-G. ΔA 9 minutes and 10 minutes after the mixing of the diluted sample with the first reagent-D (ΔA9min and ΔA10min) are shown in Table 7.”
# Next, ΔA calculated in this Example was divided by ΔA100% defined in Example 10 to calculate the degree of progression of sarcosine detection reaction. The degree of progression of sarcosine detection reaction 7.5 and 10 minutes after the mixing of the sample with the first reagent-D (in other words, 2.5 and 5 minutes after the addition of the second reagent-H) is shown in Table 8.
Compound,ΔA9 min [1],ΔA10 min [1],effect of accelerating sarcosine detection reaction [2],Degree of progression of reaction (%) after 7.5 minutes [2] [%],Degree of progression of reaction (%) after 10 minutes [2] [%]
Acid Red 151,0.212,0.212,effect of accelerating sarcosine detection reaction,68,89
O=C([O-])c1cc(N=Nc2cccc([N+](=O)[O-])c2)ccc1O.[Na+] [Alizarin Yellow GG],0.197,0.197,effect of accelerating sarcosine detection reaction,64,86
COc1cc(N=Nc2cccc(S(=O)(=O)[O-])c2)ccc1NC(=O)Nc1ccc(N=Nc2ccc(O)c(C(=O)[O-])c2)cc1.[Na+].[Na+] [Direct Yellow 44],0.315,0.315,effect of accelerating sarcosine detection reaction,68,89
O=C(O)c1cc(N=Nc2ccc3cc(S(=O)(=O)O)ccc3c2)ccc1O.[Na] [Chrome Yellow],0.186,0.186,effect of accelerating sarcosine detection reaction,65,87
COc1cc(N=Nc2ccc(N)cc2)c(C)cc1N [Disperse Diazo Black 3BF],0.156,0.156,effect of accelerating sarcosine detection reaction,63,84
O=C([O-])c1cc(N=Nc2ccc([N+](=O)[O-])cc2)ccc1O.[Na+] [Mordant Orange 1],0.327,0.328,effect of accelerating sarcosine detection reaction,67,88
Xylene Fast Yellow 2G,0.158,0.158,effect of accelerating sarcosine detection reaction,64,86
